Laboratory results from patent US20090247492A1, “MANGANESE BASED ORGANOMETALLIC COMPLEXES, PHARMACEUTICAL COMPOSITIONS AND DIETETIC PRODUCTS” (MEDESIS PHARMA S.A.,, priority 2003, published 2009).
Values joined by “and” are separate entries in the source; they are usually repeats but may differ in a detail not shown here. Equal values may be shown once.

Tests used:
[1] = tested on: edema produced by injection of adriamycin under the arch of the hind paw of the rat; assay: adriamycin test: paw edema in the Wistar rat (anti-free radical activity); format: in vivo; set-up: Paw volume, group mean: unit not given beside the values; conditions: for Paw volume, individual animals / Paw volume, group mean / Percentage paw edema, individual animals / Percentage paw edema, group mean: 100 mg/kg IP daily; for Paw volume, group mean / Percentage paw edema, group mean: 10 rats; for Percentage of edema inhibition (protection): vs olive oil control, Diosmine 100 mg/kg IP, Example 4 1 ml/kg IP
Method: The adriamycin test is a specific test used to show evidence of the anti-free radical activity of a test substance. This test is described in G. Jadot, Cedema from adriamycin in the Wistar rat. SuperOxide Dismutases, p 73-77, Masson Ed., Paris, 1988.
One hour following injection of Adriamycin, a temporary inflammatory response lasting 12 hours can be observed. This first phase corresponds to the release of histamine, serotonine and the accumulation of polynuclear neutrophiles. A second inflammatory phase commences on the third day following administration and continues for 5 days. During this inflammatory phase, vascular hyperpermeability […] endothelial cell membrane alteration produced by free radical oxidative damage. Steroidal and non-steroidal anti-inflammatory drugs are not effective during this second inflammatory phase.
Research into an anti-free radical activity in the rat by intra-peritoneal administration consists of measuring the reduction in edema produced by injection of adriamycin under the arch of the hind paw of the rat.
Male Wistar rats were used for these tests, after a quarantine period of 15 days.
(Edema was induced by subcutaneous injection of a 0.2 ml solution of adriamycin (2.5 mg/ml) in the arch of the right hind paw of the rat (Siegel's method modified by Jadot (1988)).
The compounds tested were administered 2 hours before the first measurements on the first day, and 1 hour before the measurements on the following days, until the 8th day.
The measurement of edema volume was determined by plethysmography and was performed immediately before injection of adriamycin on the first day (base measurement), and then every day at the same time.
The treatment was maintained for the entire duration of the study. The control group received the dosing vehicle only.
Following the establishment of groups of 10 animals, daily intra-peritoneal administration was carried out according to the following scheme:
Negative control: animals administered olive oil (1 ml/kg).
Positive control: animals administered 100 mg/kg de diosmine (1 ml/kg).
Example 4: animals administered example 4 (1 mil/kg)
Paw edema, expressed as a percentage, is calculated for each animal at each time point:
The percentage reduction in paw oedema at each time point and for each group of animals are calculated as follows: […]
Anti-free radical activity is shown by a significant reduction in paw volume in the treated group compared to the control group.

[2] = activity of the sterol constituent (test not specified); conditions: pure sterol in place of sitosterol
[3] = tested on: edema produced by injection of adriamycin under the arch of the hind paw of the rat; conditions: cf JL Jadot; cited from earlier work
[4] = iv-injected, rat; cited from earlier work

COc1ccc(-c2cc(=O)c3c(O)cc(O[C@@H]4O[C@H](CO[C@@H]5O[C@@H](C)[C@H](O)[C@@H](O)[C@H]5O)[C@@H](O)[C@H](O)[C@H]4O)cc3o2)cc1O [Diosmine]
Paw volume, individual animals ([1]; D1 (base), before adriamycin, 100 mg/kg): 116 and 108 and 102 (2×) and 105 and 120 and 113 and 107 and 103 and 91
Paw volume, group mean ([1]; D1 (base), before adriamycin): 106.70
Paw volume in comparison to the negative control ([1]; D2-D7, highest significance for Example 4 at D3 and D4 (p<0.001), disappears at D8): statistically significant difference
Paw volume, individual animals ([1]; D2): 129 and 152 and 112 (2×) and 107 and 128 and 135 and 118 and 110 and 105
Percentage paw edema, individual animals ([1]; D2): 11.21% and 40.74% and 9.80% (2×) and 1.90% and 6.67% and 19.47% and 10.28% and 6.80% and 15.38%
Paw volume, group mean ([1]; D2): 120.80
Percentage paw edema, group mean ([1]; D2): 13.21%
Percentage of paw edema, change versus control ([1]; D2 to D5, most significant at D3 for Example 4 (p<0.001)): significant decrease
Paw volume, individual animals ([1]; D3): 162 and 181 and 142 and 126 and 158 and 160 (2×) and 138 and 134 and 161
Percentage paw edema, individual animals ([1]; D3): 39.66% and 67.59% and 39.22% and 20.00% and 31.67% and 41.59% and 49.53% and 35.29% and 30.10% and 76.92%
Paw volume, group mean ([1]; D3): 152.20
Percentage paw edema, group mean ([1]; D3): 43.16%
Percentage of edema inhibition (protection) ([1]; D3): 44.15%
Paw volume, individual animals ([1]; D4): 152 (2×) and 121 and 180 and 143 and 172 and 158 and 142 and 223 and 187
Percentage paw edema, individual animals ([1]; D4): 31.03% and 12.04% and 76.47% and 36.19% and 43.33% and 39.82% and 32.71% and 118.63% and 81.55% and 67.03%
Paw volume, group mean ([1]; D4): 163.00
Percentage paw edema, group mean ([1]; D4): 53.88%
Percentage of edema inhibition (protection) ([1]; D4): 36.98%
Paw volume, individual animals ([1]; D5): 195 and 200 and 152 and 172 and 188 and 175 and 186 and 165 and 173 and 170
Percentage paw edema, individual animals ([1]; D5): 68.10% and 85.19% and 49.02% and 63.81% and 56.67% and 54.87% and 73.83% and 61.76% and 67.96% and 86.81%
Paw volume, group mean ([1]; D5): 177.6
Percentage paw edema, group mean ([1]; D5): 66.80%
Percentage of edema inhibition (protection) ([1]; D5): 21.77%
Paw volume, individual animals ([1]; D6): 193 and 194 and 153 and 179 and 177 and 172 and 199 and 167 and 183 and 158
Percentage paw edema, individual animals ([1]; D6): 66.38% and 79.63% and 50.00% and 70.48% and 47.50% and 52.21% and 85.98% and 63.73% and 77.67% and 73.63%
Paw volume, group mean ([1]; D6): 177.50
Percentage paw edema, group mean ([1]; D6): 66.72%
Percentage of edema inhibition (protection) ([1]; D6): 12.03%
Paw volume, individual animals ([1]; D7): 195 and 176 and 148 and 174 and 164 (2×) and 166 and 172 and 173 and 150
Percentage paw edema, individual animals ([1]; D7): 68.10% and 62.96% and 45.10% and 65.71% and 36.67% and 46.90% and 60.75% and 60.78% and 67.96% and 64.84%
Paw volume, group mean ([1]; D7): 168.20
Percentage paw edema, group mean ([1]; D7): 57.98%
Percentage of edema inhibition (protection) ([1]; D7): 14.05%
Paw volume, individual animals ([1]; D8): 180 and 173 and 145 and 156 and 165 and 164 (2×) and 175 and 159 and 154
Percentage paw edema, individual animals ([1]; D8): 55.17% and 60.19% and 42.16% and 48.57% and 37.50% and 45.13% and 63.55% and 60.78% and 54.37% and 69.23%
Paw volume, group mean ([1]; D8): 163.50
Percentage paw edema, group mean ([1]; D8): 53.67%
Percentage of edema inhibition (protection) ([1]; D8): 0%
Free radical protection activity (conclusion) ([1]; edema progression compared to the control group): confirmed its activity

CC(C)[C@H](C)CC[C@@H](C)[C@H]1CC[C@H]2[C@@H]3CC=C4C[C@@H](O)CC[C@]4(C)[C@H]3CC[C@]12C [campesterol]
activity of pure sterol [2]: no activity

CC[C@H](CC[C@@H](C)[C@H]1CC[C@H]2[C@@H]3CC[C@H]4C[C@@H](O)CC[C@]4(C)[C@H]3CC[C@]12C)C(C)C [sitostanol]
activity of pure sterol [2]: no activity

bovine SOD: bovine superoxide dismutase enzyme
Protection against edema from free radical damage [3]: possesses the same characteristics as Diosmine
circulation half life [4]: 7 min
